Data reported in patent publication US10238743B2 (Merck Sharp & Dohme Corp., priority 2014, dated 2019).

Experiments:
[1] = target: purified human autoBACE-2 (Homo sapiens (Human), UniProt Q9Y5Z0); experiment: BACE-2 Assay (BACE-HTRF assay); type: biochemical; settings: Ki calculated from IC50 using the Cheng-Prusoff equation; QSY7-EISEVNLDAEFC-Eu-amide substrate, pH 5.0
Protocol: Inhibitor IC50s at purified human autoBACE-2 are determined in a time-resolved endpoint proteolysis assay that measures hydrolysis of the QSY7-[…]-Eu-amide FRET peptide substrate (BACE-HTRF assay). […] DMSO is present at 5% final concentration in the assay. Following laser excitation of sample wells at 320 nm, the fluorescence signal at 620 nm is collected for 400 ms following a 50 μs delay on a RUBYstar HTRF plate reader (BMG Labtechnologies). Raw RFU data is normalized to maximum (1.0 nM BACE/DMSO) and minimum (no enzyme/DMSO) RFU values. […] The Ki values are calculated from the IC50 using the Cheng-Prusoff equation.

[2] = target: soluble human BACE1 catalytic domain (Homo sapiens (Human), UniProt P56817); experiment: BACE1 HTRF FRET Assay; type: biochemical; settings: Ki calculated from IC50 using the Cheng-Prusoff equation; QSY7-APPswe-Eu substrate, pH 5.0; read-out: BACE-1 Ki
Description: Na^+-Acetate pH 5.0; 1% Brij-35; Glycerol; Dimethyl Sulfoxide (DMSO); Recombinant human soluble BACE1 catalytic domain (>95% pure); APP Swedish mutant peptide substrate (QSY7-APP^swe-Eu): QSY7-EISEVNLDAEFC-Europium-amide.
A homogeneous time-resolved FRET assay can be used to determine IC50 values for inhibitors of the soluble human BACE1 catalytic domain. This assay monitors the increase of 620 nm fluorescence that resulted from BACE1 cleavage of an APPswedish APP^swe mutant peptide FRET substrate (QSY7-EISEVNLDAEFC-Europium-amide). This substrate contains an N-terminal QSY7 moiety that serves as a quencher of the C-terminal Europium fluorophore (620 nm Em). In the absence of enzyme activity, 620 nm fluorescence is low in the assay and increased linearly over 3 hours in the presence of uninhibited BACE1 enzyme. Inhibition of BACE1 cleavage of the QSY7-APP^swe-Eu substrate by inhibitors is manifested as a suppression of 620 nm fluorescence.
Varying concentrations of inhibitors at 3× the final desired concentration in a volume of 10 ul are preincubated with purified human BACE1 catalytic domain (3 nM in 10 μl) for 30 minutes at 30° C. in reaction buffer containing 20 mM Na-Acetate pH 5.0, 10% glycerol, 0.1% Brij-35 and 7.5% DSMO. Reactions are initiated by addition of 10 μl of 600 nM QSY7-APP^swe-Eu substrate (200 nM final) to give a final reaction volume of 30 μl in a 384 well Nunc HTRF plate. The reactions are incubated at 30° C. for 1.5 hours. The 620 nm fluorescence is then read on a Rubystar HTRF plate reader (BMG Labtechnologies) using a 50 millisecond delay followed by a 400 millisecond acquisition time window. Inhibitor IC50 values are derived from non-linear regression analysis of concentration response curves. Ki values are then calculated from IC50 values using the Cheng-Prusoff equation using a previously determined […] of 8 μM for the QSY7-APP^swe-Eu substrate at BACE1.

Chain of purified human autoBACE-2 (Q9Y5Z0 63-473 limits assumed): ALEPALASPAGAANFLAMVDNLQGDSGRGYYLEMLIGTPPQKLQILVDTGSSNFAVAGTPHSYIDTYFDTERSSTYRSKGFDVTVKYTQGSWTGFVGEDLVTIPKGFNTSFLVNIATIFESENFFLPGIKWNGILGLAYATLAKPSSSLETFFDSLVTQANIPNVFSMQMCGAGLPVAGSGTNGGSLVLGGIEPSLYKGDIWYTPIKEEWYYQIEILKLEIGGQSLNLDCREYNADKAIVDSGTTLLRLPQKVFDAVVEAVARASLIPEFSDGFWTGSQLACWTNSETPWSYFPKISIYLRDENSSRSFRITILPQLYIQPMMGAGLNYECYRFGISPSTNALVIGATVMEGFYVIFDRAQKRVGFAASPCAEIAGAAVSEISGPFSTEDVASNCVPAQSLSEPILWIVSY
Chain of soluble human BACE1 catalytic domain (P56817 75-416): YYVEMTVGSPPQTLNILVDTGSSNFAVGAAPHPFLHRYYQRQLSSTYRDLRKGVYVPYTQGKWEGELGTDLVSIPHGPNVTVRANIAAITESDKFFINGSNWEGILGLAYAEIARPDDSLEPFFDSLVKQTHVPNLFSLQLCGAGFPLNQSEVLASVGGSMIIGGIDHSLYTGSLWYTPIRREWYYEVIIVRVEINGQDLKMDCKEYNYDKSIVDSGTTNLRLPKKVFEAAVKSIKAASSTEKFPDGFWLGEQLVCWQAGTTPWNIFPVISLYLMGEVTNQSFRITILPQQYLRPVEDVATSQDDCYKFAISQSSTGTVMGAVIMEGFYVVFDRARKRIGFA

Row | SMILES | Ki [1] [µM] | Ki [2] [µM]
1 | COc1cnc2c(Nc3ccc4c(c3)[C@@]3(C)NC(=N)N(C)S(=O)(=O)[C@H]3CCO4)nccc2c1 [Example 43, (4aS,11bR)-2-imino-10-((3-methoxy-1,7-naphthyridin-8-yl)amino)-3,11b-dimethyl-2,3,4a,5,6,11b-hexahydro-1H-benzo[2,3]oxepino[4,5-e][1,2,4]-thiadiazine 4,4-dioxide] | 0.148 | 0.057
2 | COc1cnc(C(=O)Nc2ccc3c(c2)[C@@]2(C)NC(=N)N(C)S(=O)(=O)[C@H]2CCC3)c(C)n1 [Example 33] | 0.086 | 0.048
3 | CN1C(=N)N[C@]2(C)c3cc(NC(=O)c4ccc(OC(F)F)cn4)ccc3CCC[C@H]2S1(=O)=O [Example 38, 5-(difluoromethoxy)-N-((4aR,11bR)-2-imino-3,11b-dimethyl-4,4-dioxido-1,2,3,4a,5,6,7,11b-octahydrobenzo[6,7]cyclohepta[1,2-e][1,2,4]thiadiazin-10-yl)picolinamide] | 0.857 | 0.08
4 | CN1C(=N)N[C@]2(C)c3cc(NC(=O)c4ncc(F)cc4F)ccc3OCC[C@@H]2S1(=O)=O [Example 15] | 0.006 | 0.01
5 | COc1cnc2c(Nc3ccc4c(c3)[C@@]3(C)NC(=N)N(C)S(=O)(=O)[C@H]3CCC4)ccnc2n1 [Example 45, (4aS,11bR)-2-imino-10-((3-methoxypyrido[2,3-b]pyrazin-8-yl)amino)-3,11b-dimethyl-1,2,3,4a,5,6,7,11b-octahydrobenzo[6,7]cyclohepta[1,2-e][1,2,4]-thiadiazine 4,4-dioxide] | 2.44 | 0.547
6 | CN1C(=N)N[C@]2(C)c3cc(NC(=O)c4ncc(Cl)cc4Cl)ccc3OCC[C@@H]2S1(=O)=O [Example 11] | 0.002 | 0.002
7 | CN1C(=N)N[C@]2(C)c3cc(NC(=O)c4ccc(C#N)cn4)ccc3OCC[C@H]2S1(=O)=O [Example 5, 5-cyano-N-((4aR,11bR)-2-imino-3,11b-dimethyl-4,4-dioxido-2,3,4a,5,6,11b-hexahydro-1H-benzo[2,3]oxepino[4,5-e][1,2,4]thiadiazin-10-yl)picolinamide] | 0.303 | 0.047
